# Source: patent US9512459B2 (priority 2011, dated 2016)
# Target: Sclerotinia sclerotiorum glucose dehydrogenase (FAD-GDH) Ssc-n2 variant N191E/S529G, SEQ ID NO: 1 (Sclerotinia sclerotiorum, UniProt A7F9L2, N191E/S529G)
# Details: 60 ml culture, crude enzyme; glucose 1-40 mM, pH 6.5, DCIP/PMS
# Protocol: The transformant BL21 (DE3) expressing each mutated enzyme was precultured. The transformant was inoculated in an amount of 1% with respect to 60 ml of a medium A using a 300-ml baffled flask and shake-cultured under conditions involving 20° C., 28 hours, and 125 rpm. After collection of 50 ml of the medium, the bacterial cells were suspended by the addition of BugBuster (registered trademark) protein extraction reagent (Novagen/Merck KGaA) at a ratio of 5 ml per g of wet cells and incubated at room temperature for 15 minutes with gentle shaking. Insoluble fractions were removed by centrifugation (15 Krpm, 4° C., 20 minutes). Then, the obtained supernatant was dialyzed overnight at 4° C. against a 20 mM potassium phosphate buffer solution (pH 6.5). After the completion of the dialysis, the dialysate was centrifuged, and the supernatant was used as a crude enzyme preparation. Insoluble fractions were suspended in a 20 mM potassium phosphate buffer solution (pH 6.5) at a ratio of 1 ml per 2 ml of the suspension containing the insoluble fractions.
# The GDH activity was measured in a DCIP (0.3 mM)/PMS (0.6 mM) system using a 20 mM potassium phosphate buffer solution (pH 6.5) as a buffer solution and glucose (Glc; 1, 2, 4, 10, 20, and 40 mM) and xylose (Xyl; 4 and 40 mM) as substrates.
# The numeric values in the tables represent a mean of several data about specific activity (U/mg) and productivity (U/L) obtained under the same conditions with 40 mM glucose as a substrate. The obtained crude enzyme preparation was used to observe the correlation between the concentration of the substrate (glucose; 1, 2, 4, 10, 20, and 40 mM) and the activity. The obtained Michaelis-Menten constant (Km value) and apparent maximum activity (Vmax) were determined from a saturation curve determined therefrom.
compound,measurement,value
OC[C@H]1OC(O)[C@H](O)[C@@H](O)[C@@H]1O (stereo partly shown) [glucose],Vmax,20.2 U/mg protein
